{"source": "patent US20260151457A1", "about": "“Peptides and Fragments for Treating Diabetes and Associated Metabolic Diseases” (Betavive Ltd., priority 2024, published 2026)", "key": {"STZ-treated mouse islets": {"tested_on": "STZ-treated mouse islets", "assay": "Insulin secretion from STZ-treated mouse islets", "type": "cell-based", "details": "islets treated with 2.5 mM STZ; IGF-2 50 nM and 500 nM, GLP-1 100 nM and 1000 nM; 48 hours", "protocol": "Mouse islet cells were treated with 2.5 mM STZ and subsequently treated with either IGF-2 (FA) at 50 nM and 500 nM, or with GLP-1 at 100 nM and 1000 nM."}, "db/db mice": {"tested_on": "db/db mice", "assay": "14 hour fasting blood glucose in db/db mice treated with IGF-2", "type": "in vivo", "protocol": "db/db mice are bred to have a leptin deficiency, increasing susceptibility of the mice to obesity, insulin resistance, and type 2 diabetes (T2D).\nIn this experiment, one group of db/db mice was injected with 3000 μg/kg/day of IGF-2 for 68 days, a second group of db/db mice was injected with 12000 μg/kg/day of IGF-2 for 66 days, and a third group of db/db mice was injected with saline once a day for 68 days.\nIn one experiment (left panel), one group of db/db mice was injected with a daily dose of 12000 μg/kg of IGF-2 divided in two injections per day for 70 days, while another group of db/db mice was injected with saline. […] In another experiment (right panel), one group of db/db mice was injected with a daily dose of 12000 μg/kg of IGF-2 divided in two injections per day for 35 days, while another group of db/db mice was injected with saline.\nIn one exemplary experiment, db/db mice were treated with a 12,000 μg/kg daily dose for 70 days with 70 days of follow up (during which IGF-2 was not administered). All the treated mice maintained normoglycemia for at least 50 days following treatment. In another exemplary experiment, db/db mice were treated with a 12,000 μg/kg daily dose for 35 days with 35 days of follow up (during which IGF-2 was not administered). All the treated mice maintained normoglycemia for 35 days following treatment."}, "mice": {"tested_on": "mice", "assay": "Blood glucose concentration kinetics of IGF-2 vs. insulin in a glucose tolerance test", "type": "in vivo", "protocol": "IGF-2 therefore provides an effect that mimics insulin within the body, and that effect is referred to herein as an “insulinomimetic” effect. […] More specifically, when 1 unit of insulin per kg was administered, the recovery in glucose levels began after two hours. But when 800 μg/kg of IGF-2 was administered, the recovery in glucose levels began after six hours. […] In this example, administering IGF-2 can provide better results than administering insulin with respect to blood glucose levels, even when only a single dose was used. Without being bound by this theory, it is possible that the IGF-2 combines with a number of binding proteins in the blood and its active free form is then released slowly from the complex."}, "STZ-treated mice": {"tested_on": "STZ-treated mice", "assay": "Intraperitoneal glucose tolerance test on STZ-treated mice treated with IGF-2", "type": "in vivo", "protocol": "In this experiment, four STZ-treated mice were treated with 12,000 μg/kg/day of IGF-2 (four injections of 3000 μg/kg/day) 5 days and two mice were treated for 10 days. A glucose tolerance test was performed 50 days post-treatment with IGF-2 by challenging the treated mice with a 2 grams/kg dose of glucose and determining the blood glucose level over a 180 minute time course. The blood glucose curves of the treated mice were compared to results for a saline control, and normal (nondiabetic) obese and normal (nondiabetic) lean mice based on published literature (Jorgensen et al., J. Am Assoc. Lab. Animal Sci 2017 56 (1): 95-97)."}, "NOD mice [1]": {"tested_on": "NOD mice", "assay": "Serum insulin / insulin secretion in NOD mice treated with IGF-2", "type": "in vivo", "protocol": "FIG. 30B depicts the levels of serum insulin in NOD mice measured two weeks after a 66 day course of treatment using IGF-2. Mice that were treated with 3000 μg/kg/day of IGF-2 had serum insulin levels that were about 4-fold higher than the control mice.\nIn one exemplary experiment, NOD mice were treated with a 3000 μg/kg daily doses of IGF-2 for 150 days. ⅘ of the treated mice maintained normoglycemia compared to ¼ of the control mice. In another exemplary experiment, NOD mice were treated with a 3000 μg/kg daily dose of IGF-2 for 75 days with follow-up glucose measurements taken for an additional 90 days (during which IGF-2 was not administered). ⅝ of the treated mice maintained normoglycemia compared to 2/11 of the control mice. The average insulin secretion of the treated mice in both of these experiments was five times greater than the control mice."}, "Human pancreatic islets": {"tested_on": "Human pancreatic islets", "assay": "Peptides efficacy on human pancreatic islets (IHC, digital quantitative pathological analysis)", "type": "cell-based", "details": "IGF-2 500 nM, Peptide-20 1000 nM, five days", "protocol": "Human pancreatic islets, obtained from Prodo Labs, were cultured in Prodo Labs PIM(S) media and maintained at 37° C. with 5% CO2 to ensure optimal viability. The islets were treated with IGF-2 (500 nM) and Peptide-20 (1000 nM) for five days under continuous exposure. After treatment, islets were collected and fixed in 4% paraformaldehyde (PFA) to preserve cellular and structural integrity. The samples were then processed for formalin-fixed paraffin-embedded (FFPE) histology. Sectioned islets were stained using immunohistochemistry (IHC) with specific markers to assess islet integrity, β-cell function, and proliferation. Microscopic Digital Quantitative Pathological Analysis provided critical insights into the effects of IGF-2 and Peptide-20 on islet structure and function. […] These findings establish Peptide-20 as a strong candidate for novel diabetes therapies aimed at restoring islet function and reversing β-cell loss. […] Their ability to enhance β-cell survival and proliferation positions them as strong candidates for the development of novel regenerative therapies, paving the way for innovative drug development aimed at reversing diabetes and restoring endogenous insulin production."}, "[2]": {"tested_on": "human pancreatic islet cells", "assay": "Insulin secretion of human pancreatic islet cells in response to a glucose pulse", "type": "cell-based", "details": "IGF-2 50 nM for four days"}, "NOD mice [3]": {"tested_on": "NOD mice", "assay": "Islet cell staining for glucagon and insulin in NOD mice", "type": "in vivo", "details": "NOD mice treated with IGF-2 for 13 weeks", "source_text": "FIG. 30D confirms the results shown in FIG. 30C and provides the number of cells staining positive for insulin in NOD mice treated with IGF-2 (right bar) versus untreated NOD mice (left bar)."}}, "data": [{"substance": "insulin-like growth factor 2 [IGF-2]", "values": [{"measurement": "Insulin secretion", "setting": "STZ-treated mouse islets", "result": "increased in a dose dependent manner"}, {"measurement": "14 hour fasting blood glucose levels", "setting": "db/db mice; 3000 μg/kg/day for 68 days, first group b178, second group b179", "result": "reduced blood glucose levels (14 hour fasting blood glucose levels) to a normal range even after the end of the 68 day treatment period"}, {"measurement": "Time all treated mice maintained normoglycemia following treatment", "setting": "db/db mice; 12,000 μg/kg daily for 35 days, 35 days of follow up", "result": 35, "unit": "days"}, {"measurement": "Time all treated mice maintained normoglycemia following treatment", "setting": "db/db mice; 12,000 μg/kg daily for 70 days, 70 days of follow up", "result": "at least 50 days"}, {"measurement": "14 hour fasting blood glucose levels", "setting": "db/db mice; 12000 μg/kg daily in two injections per day for 35 days", "result": "reduced blood glucose levels (14 hour fasting blood glucose levels) to a normal range even after the end of the 35 day treatment period"}, {"measurement": "14 hour fasting blood glucose levels", "setting": "db/db mice; 12000 μg/kg daily in two injections per day for 70 days", "result": "reduced blood glucose levels (14 hour fasting blood glucose levels) to a normal range even after the end of the 70 day treatment period"}, {"measurement": "14 hour fasting blood glucose levels", "setting": "db/db mice; 12000 μg/kg/day for 66-68 days, first group b178, second group b179", "result": "reduced blood glucose levels (14 hour fasting blood glucose levels) to a normal range even after the end of the 68 day treatment period"}, {"measurement": "Glucose level after administration", "setting": "mice; glucose tolerance test in mice", "result": "decreased"}, {"measurement": "Time after which the recovery in glucose levels began", "setting": "mice; insulin 1 unit per kg, IGF-2 800 μg/kg, single dose", "result": "six"}, {"measurement": "Response to the glucose tolerance test (permanently cured mice)", "setting": "STZ-treated mice; 12,000 μg/kg/day for 5 or 10 days, test 50 days post-treatment, 2 grams/kg glucose, 180 minutes", "result": "fell between the glucose tolerance results from the literature for non-diabetic obese mice and non-diabetic lean mice"}, {"measurement": "Glucose levels in the glucose tolerance test (Mouse 01, not permanently cured)", "setting": "STZ-treated mice; 12,000 μg/kg/day, test 50 days post-treatment, 2 grams/kg glucose", "result": "higher than the normal obese mouse"}, {"measurement": "Number of IGF-2-treated mice permanently cured", "setting": "STZ-treated mice; six STZ mice treated with 12,000 μg/kg/day, four for 5 days and two for 10 days", "result": "Five"}, {"measurement": "Serum insulin levels relative to the control mice", "setting": "NOD mice [1]; 3000 μg/kg/day for 66 days, measured two weeks after treatment", "result": "about 4 fold"}, {"measurement": "Average insulin secretion of the treated mice relative to the control mice", "setting": "NOD mice [1]; both experiments (150 days; 75 days plus 90 days follow-up)", "result": "five"}, {"measurement": "Pancreatic islet regeneration, integrity and function", "setting": "Human pancreatic islets", "result": "significant regenerative potential"}, {"measurement": "Increase in insulin secretion in response to a glucose pulse compared to untreated cells", "setting": "[2]", "result": "~50", "unit": "%"}, {"measurement": "Islet cells (histological staining for glucagon and insulin)", "setting": "NOD mice [3]", "result": "fully functional islet cells"}]}]}
